Active and inactive are the calls of the source. The calls are words filed in the database; no cut-off is given here.
Assays:
Staphylococcus aureus [1] = test: Bactericidal activity against Staphylococcus aureus ATCC 29213 assessed as bacterial killing at 8 times MIC measured within 0.5 to 1 hrs by time kill assay relative to control; assay type: functional; details: time 0.5-1 hrs
Cell membrane [2] = test: Disruption of cell membrane integrity in methicillin-resistant Staphylococcus aureus clinical isolate MRSA-16 assessed as increase in red fluorescence at 2 ug/ml incubated for 4 hrs by DAPI and PI staining based confocal microscopy analysis; assay type: cell membranes; details: dose 2.0 µg/ml
Cell membrane [3] = test: Induction of cell membrane permeability in methicillin-resistant Staphylococcus aureus clinical isolate MRSA-16 assessed as decrease in intact cells (Q3 region) at 8 ug/ml incubated for 2 hrs by SYTO 9 and PI staining based flow cytometry analysis (reference value: 99.07%); assay type: cell membranes; set-up: scale not given: the % may be the effect or the level left; details: dose 8.0 µg/ml
Cell membrane [4] = test: Induction of cell membrane permeability in methicillin-resistant Staphylococcus aureus clinical isolate MRSA-16 assessed as increase in damaged cells (Q2 region) at 16 ug/ml incubated for 2 hrs by SYTO 9 and PI staining based flow cytometry analysis (reference value: 0.91%); assay type: cell membranes; details: dose 16.0 µg/ml
Cell membrane [5] = test: Induction of cell membrane permeability in methicillin-resistant Staphylococcus aureus clinical isolate MRSA-16 assessed as increase in damaged cells (Q2 region) at 32 ug/ml incubated for 2 hrs by SYTO 9 and PI staining based flow cytometry analysis (reference value: 0.91%); assay type: cell membranes; details: dose 32.0 µg/ml
Cell membrane [6] = test: Disruption of cell membrane in methicillin-resistant Staphylococcus aureus clinical isolate MRSA-16 assessed as increase in intracellular protein leakage incubated for 4 hrs by microspectrophotometer analysis; assay type: cell membranes
[7] = Toxicity in Kunming mouse assessed as redness in back of skin at 20 mg/kg, sc measured after 24 hrs; assay type: organism-based; details: in vivo
[8] = Toxicity in Kunming mouse assessed as adverse effect at 5 to 10 mg/kg, sc measured after 24 hrs; assay type: organism-based; details: in vivo, dose 5-10 mg/kg
[9] = Toxicity in Kunming mouse assessed as effect on skin at 10 mg/kg, sc measured after 24 hrs by H and E staining based analysis; assay type: organism-based; details: in vivo
[10] = Toxicity in Kunming mouse assessed as effect on lung at 10 mg/kg, sc measured after 24 hrs by H and E staining based analysis; assay type: organism-based; details: in vivo
[11] = Toxicity in Kunming mouse assessed as histopathological abnormalities in spleen at 10 mg/kg, sc measured after 24 hrs by H and E staining based analysis; assay type: organism-based; details: in vivo
[12] = Toxicity in Kunming mouse assessed as histopathological abnormalities in lung at 10 mg/kg, sc measured after 24 hrs by H and E staining based analysis; assay type: organism-based; details: in vivo
Staphylococcus aureus [13] = test: Antibacterial activity against methicillin-resistant Staphylococcus aureus infected in Kunming mouse skin infection model assessed as smooth dorsal skin at 8 mg/kg,sc measured after 24 hrs; assay type: functional, organism-based
Staphylococcus aureus [14] = test: Antibacterial activity against methicillin-resistant Staphylococcus aureus infected in Kunming mouse skin infection model assessed as effect on skin lesions in subcutaneous tissue at 8 mg/kg,sc measured after 24 hrs; assay type: functional, organism-based
Staphylococcus aureus [15] = test: Antibacterial activity against methicillin-resistant Staphylococcus aureus infected in Kunming mouse skin infection model assessed as effect on skin abscesses in dorsal surface at 4 mg/kg,sc measured after 24 hrs; assay type: functional, organism-based
Staphylococcus aureus [16] = test: Antibacterial activity against methicillin-resistant Staphylococcus aureus infected in Kunming mouse skin infection model assessed as decrease in bacterial load at 4 mg/kg,sc measured after 24 hrs; assay type: functional
[17] = Toxicity in Kunming mouse assessed as effect on lung at 4 to 8 mg/kg, sc measured after 24 hrs by H and E staining based analysis; assay type: organism-based; details: in vivo, dose 4-8 mg/kg
[18] = Toxicity in Kunming mouse assessed as effect on kidney at 4 to 8 mg/kg, sc measured after 24 hrs by H and E staining based analysis; assay type: organism-based; details: in vivo, dose 4-8 mg/kg
[19] = Toxicity in Kunming mouse assessed as histopathological abnormalities in kidney at 4 to 8 mg/kg, sc measured after 24 hrs by H and E staining based analysis; assay type: organism-based; details: in vivo, dose 4-8 mg/kg
Staphylococcus aureus [20] = test: Antibacterial activity against methicillin-resistant Staphylococcus aureus clinical isolate MRSA-11 measured after 16 to 18 hrs by CLSI method; assay type: functional; details: time 16-18 hrs
Staphylococcus aureus [21] = test: Antibacterial activity against methicillin-resistant Staphylococcus aureus clinical isolate MRSA-14 measured after 16 to 18 hrs by CLSI method; assay type: functional; details: time 16-18 hrs
Staphylococcus aureus [22] = test: Antibacterial activity against methicillin-resistant Staphylococcus aureus clinical isolate MRSA-23 measured after 16 to 18 hrs by CLSI method; assay type: functional; details: time 16-18 hrs

CCCC[N+](C)(CCCC)CCCCCOc1ccc(C2CC(=O)c3c(OC)cc(OCCCCC[N+](C)(CCCC)CCCC)c(CC=C(C)C)c3O2)cc1.[I-].[I-] (configuration not stated)
Activity (Staphylococcus aureus [1]): 100% | Activity (Cell membrane [2]): Active | Activity (Cell membrane [3]): 39.7% | Activity (Cell membrane [4]): 69.9% | Activity (Cell membrane [5]): 0.79% | Activity (Cell membrane [6]): Active | Activity [7]: Toxic | Activity [8]: Non-Toxic | Activity [9]: Non-Toxic | Activity [10]: Non-Toxic | Activity [11]: Non-Toxic | Activity [12]: Non-Toxic | Activity (Staphylococcus aureus [13]): Active | Activity (Staphylococcus aureus [14]): inactive | Activity (Staphylococcus aureus [15]): Active | Activity (Staphylococcus aureus [16]): 3.2 log10CFU/g | Activity [17]: Non-Toxic | Activity [18]: Non-Toxic | Activity [19]: Non-Toxic | MIC (Staphylococcus aureus [20]): 0.5 µg/mL | MIC (Staphylococcus aureus [21]): 0.25 µg/mL | MIC (Staphylococcus aureus [22]): 0.25 µg/mL

Source: ChEMBL document CHEMBL5505992, “Novel membrane-targeting isoxanthohumol-amine conjugates for combating methicillin-resistant Staphylococcus aureus (MRSA) infections” (Eur J Med Chem, 2024)
